Measured values as given in patent US20080318958A1, “New utilities of tricyclic compounds” (priority 2001, published 2008).

System: promoter region of the gene encoding human apoAI
Assay: Activity to enhance the expression of human apoAI: apoAI promoter-firefly luciferase reporter in stably transfected HepG2 cells
Assay type: cell-based
Details: concentration that intensified the luciferase activity twice compared to DMSO control, 24 hours incubation with compound, read-out: MED (minimal effective dose)
Protocol: The promoter region of the gene encoding human apoAI was isolated, and ligated upstream the structure gene of firefly luciferase to construct a reporter plasmid. The reporter plasmid and a marker plasmid conferring the neomycin resistance were co-infected to cell lines derived from human hepatoma, HepG2 cells, and the cell lines were incubated in a selection medium comprising DMEM medium containing 10% fetal calf serum supplemented with G418 (Final concentration: 0.7 mg/mL, Gibco) to give established strains that stably expressed the reporter molecule. The strains were seeded to a 96-well culture plates at a density of 50,000 cells per well, and incubated for 48 hours at 37° C. under an atmosphere of 5% carbon dioxide. Then, a solution of the compounds according to the invention in DMSO was added to the wells at final concentrations of 0 to 10 μg/mL. After further incubation for 24 hours, the cells were added with a luciferase assay reagent (Piccagene LT 7.5 registered trade mark, Toyo Ink, KK), and the luciferase activity was determined using a luminometer (MicroBeta™ TRILUX, 1 sec/well, Wallac). The concentration of the compounds, which intensified the luciferase activity twice compared to that of control (DMSO without any compound of the invention added) was set as the minimal effective dose (MED).

| Structure (SMILES) | EC (2-fold luciferase activity) [µM] |
| --- | --- |
| C#CC1COc2ccc(-c3c(OC)cc(-c4ccc(O)cc4)c(OC)c3O)cc2O1 (stereo not drawn) [Compound I-44] | 0.6 |
| CC(=O)Nc1ccc(-c2ccc(-c3ccccn3)cc2)cc1 [Compound I-43] | 0.3 |
| CCc1cnc(-c2ccc(-c3ccccc3)cc2)nc1 [Compound I-23] | 0.27 |
| COc1cc(OC)nc(-c2ccc(-c3ccccc3)cc2)n1 [Compound I-24] | 2.2 |
| Cc1cc(-c2ccc(-c3ccccc3)cc2)nc2ccccc12 [Compound I-18] | 1.1 |
| c1ccc(-c2ccc(-c3ccc4ccccc4n3)cc2)cc1 [Compound I-17] | 0.33 |
| c1ccc(-c2ccc(-c3ccccc3)nn2)cc1 [Compound I-7] | 0.04 |
| c1ccc(-c2ccc(-c3ccccc3)nc2)cc1 [Compound I-11] | 0.21 |
| COc1cc(-c2ccc(O)cc2)c(OC)c(O)c1-c1ccc(OC/C=N/C2CCN(C)CC2)c(O)c1 [Compound I-48] | 1.6 |
| c1ccc(-c2ccc(-c3ncccn3)cc2)cc1 [Compound I-8] | 0.09 |
| c1ccc(-c2ccc(-c3ccc(-c4ccccc4)nn3)cc2)cc1 [Compound I-28] | 2.5 |
| COc1nc(OC)nc(-c2ccc(-c3ccccc3)cc2)n1 [Compound I-29] | 2.5 |
| Cc1cccc(-c2ccc(-c3ccccc3)cc2)n1 [Compound I-21] | 2.3 |
| Cc1ccc(-c2ccc(-c3ccccn3)cc2)cc1 [Compound I-42] | 0.09 |
| c1ccc(-c2ccc(-c3ccsc3)cc2)nc1 [Compound I-36, 2-[4-(3-Thienyl)phenyl]pyridine] | 1.3 |
| COc1ccc(-c2ccc(-c3ccccc3)cc2)nn1 [Compound I-27, 3-(4-Biphenyl)-6-methoxypyridazin] | 0.06 |
| c1ccc(-c2ccc(-c3cnccn3)cc2)cc1 [Compound I-10] | 0.71 |
| Clc1ccc(-c2ccc(-c3ccccc3)cc2)nn1 [Compound I-26] | 0.27 |
| c1ccc(-c2ccc(-c3cccnn3)cc2)cc1 [Compound I-25] | 0.29 |
| COc1cccc(-c2ccc(-c3ccccc3)cc2)n1 [Compound I-22] | 0.84 |
| c1ccc(-c2ccc(-c3cnc4ccccc4n3)cc2)cc1 [Compound I-16] | 0.1 |
| COc1ccc(-c2ccc(-c3ccccn3)cc2)cc1 [Compound I-40] | 0.16 |
| COc1cccc(-c2cnc(-c3cccc(OC)c3)cn2)c1 [Compound I-35] | 0.29 |
| c1ccc(-c2ccc(-c3ccccn3)cc2)cc1 [Compound I-20] | 0.23 |
| c1ccc(-c2ccc(-c3ccncn3)cc2)cc1 [Compound I-1] | 0.63 |
| c1ccc(-c2ccc(-c3ccoc3)cc2)nc1 [Compound I-37] | 4.4 |
| COc1cc(-c2ccc(O)cc2)c(OC)c(O)c1-c1ccc2c(c1)OC(O)CO2 (stereo not drawn) [Compound I-45] | 2.4 |
| c1ccc(-c2cnc(-c3ccccc3)nc2)cc1 [Compound I-2] | 0.2 |
| c1ccc(-c2cncc(-c3ccccc3)n2)cc1 [Compound I-6] | 3.11 |

System: not given
Assay: not given
Details: not given

| melting point [°C] | Structure (SMILES) |
| --- | --- |
| 91 to 92 | c1ccc(-c2cc(-c3ccccc3)ncn2)cc1 [Compound I-5] |
| 46 to 48 | c1ccc(-c2cccc(-c3ncccn3)c2)cc1 [Compound I-9] |
| 218 to 220 | c1ccc(-c2ccc(-c3ccccc3)nn2)cc1 [Compound I-7] |
| 176 to 177 | c1ccc(-c2ccc(-c3ccccc3)nc2)cc1 [Compound I-11] |
| 112 to 113 | c1ccc(-c2ccc(-c3ncccn3)cc2)cc1 [Compound I-8] |
| 66 to 69 | c1ccc(-c2ccnc(-c3ccccc3)n2)cc1 [Compound I-4] |
| 175 to 177 | COc1ccc(-c2nnc(-c3ccccc3)c3ccccc23)cc1 [Compound I-13] |
| 177 to 178 | c1ccc(-c2ccc(-c3cnccn3)cc2)cc1 [Compound I-10] |
| 203 to 205 | c1ccc(-c2nnc(-c3ccccc3)c3ccccc23)cc1 [Compound I-12] |
| 88.5 to 90 | c1ccc(-c2cncc(-c3ccccc3)n2)cc1 [Compound I-6] |
